Assay results reported in publication PMC6472001, “Phenolic Compounds from Humulus lupulus as Natural Antimicrobial Products: New Weapons in the Fight against Methicillin Resistant Staphylococcus aureus, Leishmania mexicana and Trypanosoma brucei Strains” (Molecules, 2019).
Like-named read-outs stand apart in the source and are kept apart here.

Tests used:
S. aureus 08143 (MSSA) = assay: Broth microdilution MIC; type: cell-based, Staphylococcus aureus; conditions: S. aureus 08143 (MSSA)
Procedure: (§1) The protocol employed was inspired by Abedini et al. with some modifications. Products were solubilized in DMSO and serially diluted two-fold in MH medium. A bacterial suspension at 10^5 CFU/mL was added to obtain a final volume of 200 µL. Final phenolic product concentrations in wells ranged from 625 to 2.4 µg/mL (exception for lupulone for which dilutions were continued until 0.3 µg/mL). […] Plates were incubated overnight with stirring (60 rpm) at 37 °C.

S. aureus T25.10 (MRSA) = assay: Broth microdilution MIC; type: cell-based, Staphylococcus aureus; conditions: S. aureus T25.10 (MRSA)
Procedure: as §1

S. aureus T26A4 (MSSA) = assay: Broth microdilution MIC; type: cell-based, Staphylococcus aureus; conditions: S. aureus T26A4 (MSSA)
Procedure: as §1

S. aureus T28.1 = assay: Kill curves; type: cell-based, Staphylococcus aureus
Procedure: This experiment allowed following in time the effect of the product on a growing bacterial population, highlighting the bactericidal or bacteriostatic effect. Stock solutions of xanthohumol, desmethylxanthohumol and lupulone were prepared in DMSO 20 times more concentrated than the desired final concentrations (MIC/4 to 4xMIC). An aliquot of 0.5 mL of purified product in DMSO was added to 8.5 mL of brain heart infusion (BHI) medium (Oxoid, UK). 1 mL of bacterial suspension at 10^5 CFU/mL was then introduced to the culture tube. A 5% DMSO control served as a negative control and was performed at each test. Culture tubes were incubated at 37 °C for 24 h. Counts were made every 2 h until 8 h and at 24 h by plating aliquots of serial tenfold dilutions on MHA. The determined bacterial concentrations were then converted into log(CFU/mL) and were expressed as a function of time. The detection threshold of this method was 10 CFU/mL and 1 log(CFU/mL) on graphics.

S. aureus T28.1 biofilm [1] = assay: Anti-biofilm: biofilm formation on artificial surface; type: cell-based, Staphylococcus aureus
Procedure: (§2) These experiments were inspired and adapted from Liu et al.. They were performed using a 96-well microplate with a flat bottom.
First, the effect of xanthohumol, desmethylxanthohumol and lupulone was assessed on the biofilm formation: 180 µL of BHI medium containing glucose at 10 mg/mL was added to each well of a 96-well microplate with 10 µL of the product previously solubilized in DMSO and 10 µL of a 10^5 CFU/mL bacterial suspension. The maximum concentration in DMSO was 5%. Final concentrations of purified products were from MIC/4 to 4 × MIC. After 24 h incubation at 37 °C, wells were voided and washed 3 times with phosphate buffered saline solution (PBS, Sigma-Aldrich, Saint-Quentin Fallavier, France). Plates were then dried and 150 µL of crystal violet solution at 20 mg/mL in MeOH (Sigma-Aldrich®, Saint-Quentin Fallavier, France) were added for 15 min. After removing crystal violet, 150 µL of EtOH were added to solubilize crystal violet present in adherent bacteria. The optical density was read at 570 nm.

S. aureus T28.1 biofilm [2] = assay: Anti-biofilm: destruction of preformed biofilm on artificial surface; type: cell-based, Staphylococcus aureus
Procedure: as §2
The effect was also evaluated after the biofilm formation in order to evaluate if the hop phenolic compounds are able to destroy it. A first culture of 24 h at 37 °C with 190 µL of BHI medium and 10 µL of a 10^5 CFU/mL bacterial suspension allowed producing the biofilm. Wells were voided and washed with PBS. The biofilm was then treated with xanthohumol, desmethylxanthohumol or lupulone diluted at 5% in the BHI medium to obtain a final volume of 200 µL. Plates were incubated for 24 h at 37 °C, then voided and colored with crystal violet as above.

[3] = system: Leishmania mexicana mexicana (Lmm); assay: Antiparasitic activity, broth microdilution; type: cell-based
Procedure: (§3) Tbb were cultivated in HMI9 medium containing 10% heat-inactivated foetal bovine serum (FBS) (Sigma-Aldrich), […] L-cysteine and […] beta-mercaptoethanol at 37 °C (CO2 5%). Lmm (MHOM/BZ/84/BEL46) were cultivated in SDM-79 medium (Gibco) supplemented with 15% heat-inactivated FBS (Sigma-Aldrich) and 5 mg/L hemin at 28 °C (CO2 5%). Antiparasitic bioassays were performed as described by Bero et al.. Suramin (SUR) and pentamidine (PEN) were used as positive controls respectively. The hops compounds (xanthohumol, desmethylxanthohumol, humulone, lupulone) concentration that inhibits 50% of the cell viability (IC50) was determined using GraphPad Prism, version 5.01 (GraphPad Software, San Diego, CA, USA).

[4] = system: Trypanosoma brucei brucei (Tbb); assay: Antiparasitic activity, broth microdilution; type: cell-based
Procedure: as §3

[5] = system: Hep-G2 cells (hepatocellular carcinoma); assay: Cytotoxicity / antiproliferative effect; type: cell-based, human
Procedure: (§4) Several human cell lines were used for the cytotoxic bioassays: non-cancer lung fibroblasts (WI-38), hepatocellular carcinoma (Hep-G2), osteosarcoma (MG-63) and the mouse monocyte macrophage J774. Cells were seeded into wells of a 96-well microplate in a Gibco™ Dulbecco’s modified eagles medium (DMEM), except for MG-63 which were cultivated in a minimum essential medium (MEM) (ThermoFisher Scientific, Illkirch-Graffenstaden, France). Both media were enriched with 10% FBS (ThermoFisher Scientific, France) and some antibiotics (mixture penicillin/streptomycin 100 UI/mL, Sigma Aldrich). After one or two days at 37 °C (5% of CO2), wells were emptied by suction. Cells were then treated with hops compounds (xanthohumol, desmethylxanthohumol, humulone, lupulone) in DMSO at 0.2% in the culture medium, to obtain a final volume of 100 µL in wells (negative control: 0.2% DMSO). Camptothecin was used as a positive control. After 48 to 72 h exposure, culture medium was replaced by 10% of Alamar blue or 3-(4,5-dimethylthiazol-2-yl)-2,5-diphenyltetrazolium bromide (MTT) in the medium (ThermoFisher Scientific®, Illkirch, France) and plates were incubated the time necessary to the reaction. Results were measured respectively by fluorescence (excitation 530 nm and emission 590 nm) or by optical density at 550 nm. The IC50 of each product was determined using GraphPad Prism (version 5.01).

[6] = system: WI-38 cells (non-cancer lung fibroblasts); assay: Cytotoxicity / antiproliferative effect; type: cell-based, human
Procedure: as §4

[7] = system: MG-63 cells (osteosarcoma); assay: cells; type: cell-based, human
Procedure: as §4

[8] = Staphylococcus aureus, read-out: MIC
[9] = Staphylococcus aureus, value in parentheses, read-out: MIC
[10] = Leishmania mexicana, read-out: IC50 (converted)
[11] = Leishmania mexicana, value in parentheses, read-out: IC50 (converted)
[12] = Trypanosoma brucei, read-out: IC50 (converted)
[13] = Trypanosoma brucei, value in parentheses, read-out: IC50 (converted)
[14] = Homo sapiens, HepG2, read-out: IC50 ± SD
[15] = Homo sapiens, HepG2, value in parentheses, read-out: IC50 (converted)
[16] = Homo sapiens, read-out: IC50 ± SD
[17] = Homo sapiens, value in parentheses, read-out: IC50 (converted)
[18] = Homo sapiens, MG-63, read-out: IC50 ± SD
[19] = Homo sapiens, MG-63, value in parentheses, read-out: IC50 (converted)
[20] = value in parentheses, read-out: MIC
[21] = value in parentheses, read-out: IC50 (converted)

| Molecule | MIC (S. aureus 08143 (MSSA); [8]) | MIC (S. aureus 08143 (MSSA); [9]) | MIC (S. aureus T25.10 (MRSA); [8]) | MIC (S. aureus T25.10 (MRSA); [9]) | MIC (S. aureus T26A4 (MSSA); [8]) | MIC (S. aureus T26A4 (MSSA); [9]) | Biofilm formation on artificial surface (S. aureus T28.1 biofilm [1]; sub-inhibitory concentrations) | Biofilm destruction (S. aureus T28.1 biofilm [2]; MIC/4) | IC50 [3, 10] | IC50 [3, 11] | IC50 [4, 12] | IC50 [4, 13] | IC50 [5, 14] | IC50 [5, 15] | IC50 [6, 16] | IC50 [6, 17] | IC50 [7, 18] | IC50 [7, 19] | further results |
| --- | --- | --- | --- | --- | --- | --- | --- | --- | --- | --- | --- | --- | --- | --- | --- | --- | --- | --- | --- |
| CC(C)=CCc1c(O)cc(O)c(C(=O)/C=C/c2ccc(O)cc2)c1O [DMX, desmethylxanthohumol] | 39 µg/mL | 115 µM | 19.5 µg/mL | 57.3 µM | 39 µg/mL | 115 µM | significant inhibition | 81% | 26.2 ± 1.8 µg/mL | 77 µM | 7.7 ± 0.6 µg/mL | 22.6 µM | 22.4 ± 2.9 µg/mL | 65.9 µM | 60.7 ± 2.5 µg/mL | 178 µM | 39.5 ± 3.3 µg/mL | 116 µM | Bacterial population reached (detection threshold) (S. aureus T28.1; 2 × MIC, after 24 h): 1 log(CFU/mL) |
| COc1cc(O)c(CC=C(C)C)c(O)c1C(=O)/C=C/c1ccc(O)cc1 [XN, xanthohumol] | 19.5 µg/mL | 55 µM | 9.8 µg/mL | 27.7 µM | 9.8 µg/mL | 27.7 µM |  |  | 6.1 ± 3.1 µg/mL | 17.2 µM | 2.4 ± 0.2 µg/mL | 6.8 µM | 2.5 ± 0.8 µg/mL | 7.1 µM | 6.9 ± 0.5 µg/mL | 19.5 µM | 10.4 ± 2.6 µg/mL | 29.4 µM | Decrease of the bacterial population (S. aureus T28.1; 2xMIC, first 4 h): around 3 log(CFU/mL); Decrease of the bacterial population (S. aureus T28.1; MIC/2, first 6 h): 0.5 log(CFU/mL); Decrease of the bacterial population (S. aureus T28.1; at the MIC, during 24 h): 2 log(CFU/mL); Biofilm formation on artificial surface (S. aureus T28.1 biofilm [1]; at the MIC): totally inhibited; Inhibition of biofilm formation (S. aureus T28.1 biofilm [1]; at the MIC): ~100%; Biofilm destruction (S. aureus T28.1 biofilm [2]; at the MIC and above): non-dose-dependent activity |
| lupulone |  |  |  |  |  |  | significant inhibition | 62.8% |  |  |  |  |  |  |  |  |  |  | MIC (S. aureus 08143 (MSSA)): 1.2 µg/mL; MIC (S. aureus 08143 (MSSA); [20]): 2.9 µM; MIC (S. aureus T25.10 (MRSA)): 0.6 µg/mL; MIC (S. aureus T25.10 (MRSA); [20]): 1.45 µM; MIC (S. aureus T26A4 (MSSA)): 0.6 µg/mL; MIC (S. aureus T26A4 (MSSA); [20]): 1.45 µM; Reduction between the control and 2 × MIC (S. aureus T28.1; 2 × MIC): about 3 log(CFU/mL); Kill curve effect at 4 × MIC (S. aureus T28.1; 4 × MIC): slightly decreased the bacterial population; IC50 [3]: 4.7 ± 0.1 µg/mL; IC50 [3, 21]: 11.3 µM; IC50 [4]: 0.9 ± 0.0 µg/mL; IC50 [4, 21]: 2.2 µM; IC50 ± SD [5]: 1.2 ± 0.5 µg/mL; IC50 [5, 21]: 2.9 µM; IC50 ± SD [6]: 1.1 ± 0.0 µg/mL; IC50 [6, 21]: 2.6 µM; cell viability [7]: ~100%; IC50 ± SD ([7]; MG-63): 4.3 ± 0.4 µg/mL; IC50 ([7]; MG-63, value in parentheses, read-out: IC50 (converted)): 10.4 µM; selectivity index ([7]; antibacterial activity compared to cytotoxicity against MG-63): > 4 |
